From patent USRE37886E1, “1-(1,2-Disubstituted piperidinyl)-4-substituted piperazine derivatives” (Janssen Pharmaceuticals, N.V., priority 1995, dated 2002)
pIC50: −log10 of the molar value. Blank lines part the entries; values can stand above or below the compound they belong to.

Columns and labels:
[1] = tested on: substance-P induced relaxation of the pig coronary arteries; assay: Antagonism of substance-P induced relaxation of the pig coronary arteries; format: cell-based; conditions: concentration at which 50% of the response to 10^−9 M substance P was inhibited, 30 minutes incubation, prostaglandin F2a precontracted segments
From the text: (§1) The compounds of the present invention are potent inhibitors of neurokinin-mediated effects, in particular those mediated via the NK1 receptor, and may therefore be described as tachykinin antagonists, especially as substance P antagonists, as indicated in vitro by the antagonism of substance P induced relaxation of pig coronary arteries which is described hereinafter. The binding affinity of the present compounds for the human, guinea-pig and gerbil neurokinin receptors may be determined in vitro in a receptor binding test using ^3H-substance-P as radioligand. The subject compounds also show substance-P antagonistic activity in vivo as may be evidenced by, for instance, the antagonism of substance P-induced plasma extravasation in guinea-pigs, or the antagonism of drug-induced emesis in ferrets (Watson et al., Br. J. Pharmacol. 115, 84-94, 1995).
Antagonism of substance-P induced relaxation of the pig coronary arteries
Segments of coronary artieries taken from pigs (killed by injection of an overdose of sodium pentobarbital) were inverted and mounted for recordign of isometric tension in organ baths (volume 20 ml) with the endothelium at the outside. The preparations were bathed in Krebs-Henseleit solution. The solution was kept at 37° C. and gassed with a mixture of O2/CO2 (95/5). After stabilisation of the preparations, prostaglandin F2a (10^−5 M) was administered to induce a contraction. This was repeated until contractivle responses became stable. Then prostaglandin F2a was again administered and substance P(3×10^−10 M and 10^−9 M cumulatively) was added. Substance P induced endothelium dependent relaxations. After washing away the agonists, a known concentratin of a compound of formula (I) was added. After an incubation period of 30 minutes, prostaglandin F2a ([…]) and the same concentrations of sbustance P as described above were again administered in the presence of the compound to be tested. Relaxations caused by substance P were expressed as relaxations under control conditions, and percent inhibition of the response to […] substance P was taken as a measure of the antagonistic activity of the compound to be tested. Table 6 lists the IC50 values (concentration at which 50% of the response to […] substance P was inhibited by the test compound) for the tested compounds.

[2] = tested on: substance P induced plasma extravasation; assay: Antagonism of substance P induced plasma extravasation in guinea-pigs; format: in vivo; conditions: lowest active dose, female guinea-pigs; for LAD nose: compound 1 hour prior to substance P (2 mg/kg, femoral artery), blue colouring of nose 10 minutes after challenge; for LAD conjunctiva / LAD forepaws / LAD trachea / LAD urinary bladder: compound 1 hour prior to substance P; for LAD conjunctiva: blue colouring of conjunctiva 10 minutes after challenge; for LAD forepaws: blue colouring of forepaws 10 minutes after challenge; for LAD trachea: blue colouring of trachea 30 minutes after challenge; for LAD urinary bladder: blue colouring of urinary bladder 30 minutes after challenge
From the text: as §1
Antagonism of substance P induced plasma extravasation in guinea-pigs
Plasma extravasation was induced by injection of substance P (2 mg/kg) in the femoral artery of female guinea-pigs. Evans Blue dye (30 mg/kg) was injected simultaneously. The test compound or solvent was administered 1 hour prior to substance P injection. 10 minutes after challenge, the aminals were checked for blue colouring (a direct measure for plasma extravasation) of the nose, the forepaws, and the conjectiva. 30 minutes after challenge, the animals were sacrificed by CO2 gas inhalation and checked for blue colouring of the trachea and the urinary bladder. […]

SMILES: Cc1cccc(C)c1NC(=O)CN1CCN([C@@H]2CCN(C(=O)c3cc(C(F)(F)F)cc(C(F)(F)F)c3)[C@@H](Cc3ccccc3)C2)CC1.O=C(O)/C=C/C(=O)O (relative stereo) [Compound 128, (B-trans)-4-[1-[3,5-bis(trifluoromethyl)benzoyl]-2-(phenylmethyl)-4-piperidinyl]-N-(2,6-dimethylphenyl)-1-piperazineacetamide (E)-2-butenedioate (1:1)]
pIC50 [1]: 9.46 | LAD nose [2]: 0.63 mg/kg | LAD conjunctiva [2]: 0.63 mg/kg | LAD forepaws [2]: 0.63 mg/kg | LAD trachea [2]: >40 mg/kg | LAD urinary bladder [2]: 10.0 mg/kg

SMILES: Cc1cccc(C)c1NC(=O)CN1CCN([C@@H]2CCN(C(=O)c3cc(C(F)(F)F)cc(C(F)(F)F)c3)[C@@H](Cc3ccccc3)C2)CC1.O=C(O)C[C@H](O)C(=O)O (relative stereo) [Compound 95, (+)-(B)-trans-4-[1-[3,5-bis(trifluoromethyl)benzoyl]-2-(phenylmethyl)-4-piperidinyl]-N-(2,6-dimethylphenyl)-1-piperazine acetamide. (L)-malic acid (1:1)]
pIC50 [1]: 10.00 | LAD nose [2]: 0.31 mg/kg | LAD conjunctiva [2]: 0.31 mg/kg | LAD forepaws [2]: 0.31 mg/kg | LAD trachea [2]: 0.63 mg/kg | LAD urinary bladder [2]: 2.50 mg/kg

SMILES: CCOCCn1c(N2CCN(C3CCN(C(=O)c4cc(C(F)(F)F)cc(C(F)(F)F)c4)C(Cc4ccccc4)C3)CC2)nc2ccccc21 (stereo not drawn) [Compound 22]
pIC50 [1]: 9.43 | LAD nose [2]: 2.50 mg/kg | LAD conjunctiva [2]: 2.50 mg/kg | LAD forepaws [2]: 2.50 mg/kg | LAD trachea [2]: 10.0 mg/kg | LAD urinary bladder [2]: >40 mg/kg

SMILES: Cc1cccc(C)c1NC(=O)CCN1CCN(C2CCN(C(=O)c3cc(C(F)(F)F)cc(C(F)(F)F)c3)C(Cc3ccccc3)C2)CC1 (racemic) [Compound 105]
pIC50 [1]: 8.98 | LAD nose [2]: 2.50 mg/kg | LAD conjunctiva [2]: 2.50 mg/kg | LAD forepaws [2]: 2.50 mg/kg | LAD trachea [2]: >40 mg/kg | LAD urinary bladder [2]: >40 mg/kg

pIC50 ([1]; Sus scrofa, 0.5 h): 9.54
SMILES: Cc1ncc(Cn2c(N3CCN([C@H]4CCN(C(=O)c5cc(C(F)(F)F)cc(C(F)(F)F)c5)[C@@H](Cc5ccccc5)C4)CC3)nc3ccccc32)o1 (racemic) [Compound 70, (±)-cis-1-[3,5-bis(trifluoromethyl)benzoyl]-4-[4-[1-[(2-methyl-5-oxazolyl)methyl]-1H-benzimidazol-2-yl]-1-piperazinyl]-2-(phenylmethyl)piperidine]
LAD nose [2]: 10.0 mg/kg | LAD conjunctiva [2]: 10.0 mg/kg | LAD forepaws [2]: 10.0 mg/kg | LAD trachea [2]: 10.0 mg/kg | LAD urinary bladder [2]: 10.0 mg/kg

SMILES: O=C(C(c1ccccc1)N1CCN(C2CCN(C(=O)c3cc(C(F)(F)F)cc(C(F)(F)F)c3)C(Cc3ccccc3)C2)CC1)N1CCCC1 (mixture of isomers) [Compound 46]
pIC50 [1]: 9.38 | LAD nose [2]: 0.63 mg/kg | LAD conjunctiva [2]: 0.63 mg/kg | LAD forepaws [2]: 0.63 mg/kg | LAD trachea [2]: >40 mg/kg | LAD urinary bladder [2]: 0.63 mg/kg

SMILES: Cc1cccc(C)c1NC(=O)CN1CCN(C2CCN(C(=O)c3cc(C(F)(F)F)cc(C(F)(F)F)c3)C(Cc3ccc(C(F)(F)F)cc3)C2)CC1 (single isomer, unassigned) [Compound 137]
pIC50 [1]: 9.64 | LAD nose [2]: 2.50 mg/kg | LAD conjunctiva [2]: 2.50 mg/kg | LAD forepaws [2]: 2.50 mg/kg | LAD trachea [2]: 2.50 mg/kg | LAD urinary bladder [2]: 2.50 mg/kg

SMILES: Cc1ncc(CN2CCN(C3CCN(C(=O)c4cc(C(F)(F)F)cc(C(F)(F)F)c4)C(Cc4ccccc4)C3)CC2)o1 (racemic) [Compound 119]
pIC50 [1]: 8.55 | LAD nose [2]: 2.50 mg/kg | LAD conjunctiva [2]: 2.50 mg/kg | LAD forepaws [2]: 2.50 mg/kg | LAD trachea [2]: 10.0 mg/kg | LAD urinary bladder [2]: >40 mg/kg
